25 compounds from PubChem BioAssay (NCI) can be followed below.

Values joined by “and” are separate entries in the source; they are usually repeats but may differ in a detail not shown here. Equal values may be shown once.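 Protocol summary: plate cells (96-well), add compound at 5 concentrations, incubate 48 h, interpolate endpoints linearly. GI50: concentration for 50% inhibition of growth. The concentration for full growth arrest is given as TGI.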

Assay in all cases: NCI tumour cell line growth inhibition, 48 h
Experiment [1] relates to BT-549 breast.
The test system of experiment [2] is MDA-N.
The subject of experiment [3] is NCI-H460 lung.
Experiment [4] deals with HOP-92 NSCLC.
Experiment [5] has as its system RPMI-8226 leukemia.
The test system of experiment [6] is MCF7 breast.
Experiment [7] concerns HOP-62 NSCLC.
For experiment [8], the system named is U251 CNS.
Experiment [9] relates to SW-620 colon.
Experiment [10] relates to UACC-62 melanoma.
Experiment [11] relates to RXF 393 renal.

As to `C#CC(O)Cc1ccc(OC)c2occc12` (centres undefined), the TGI in [1], in experiment [2], in experiment [3], in experiment [4], in experiment [5] and in [6] was more than 100 µM in each case. Also, the TGI in [7], in [8], in [9], in [10] and in [11] was more than 100 µM in each case.

In the case of `O=[N+]([O-])c1ccc2[nH]c(O)c(N=NC(=S)Nc3ccccc3)c2c1`, the TGI in [1] is 19.9 µM; in [2], 21.7 µM; in experiment [3], 14.5 µM; in experiment [4], 21.7 µM; in [5], more than 100 µM; in experiment [6], 24.6 µM. Further, the TGI was 21.8 µM in experiment [7]; 16.6 µM in [8]; more than 100 µM in experiment [9]; 29 µM in experiment [10]; 26.4 µM in [11].

For the compound `Nc1nc(NCCOCP(=O)(O)O)c(N)c(=O)[nH]1`, the TGI in experiment [1], in experiment [2], in experiment [3], in experiment [4], in [5] and in experiment [6] was more than 100 µM throughout. Moreover, the TGI in experiment [7], in [8], in [9], in experiment [10] and in experiment [11] was more than 100 µM throughout.

`S=C(Nc1cccc(C2(N3CCCCC3)CCCCC2)c1)Nc1cccc(C2(N3CCCCC3)CCCCC2)c1`: the TGI in [1] was more than 100 µM; in experiment [2], 33.8 µM; in experiment [3] it was 36.7 µM; in [4] it was 43.9 µM; in experiment [5], 30.7 µM; in experiment [6] it was 64.1 µM. Also, the TGI was more than 100 µM in experiment [7]; 50.4 µM in experiment [8]; more than 100 µM in experiment [9]; 33.3 µM in experiment [10]; 29.7 µM in experiment [11].

Take `CC(C)(CN)SCc1ccccc1`: the TGI in experiment [1], in experiment [2], in experiment [3], in experiment [4], in [5] and in experiment [6] was more than 100 µM in each case. Moreover, the TGI in [7], in [8], in [9], in experiment [10] and in experiment [11] was more than 100 µM each time.

For the compound `CCN(CC)CCC(=O)O[C@H]1CC[C@H](CC(C)[C@H]2CC(=O)C(C)C=C(C)[C@H](OC(=O)CCN(CC)CC)C(OC)C(=O)[C@@H](C)CC(C)/C=C/C=C/C=C(C)C(OC)CC3CC[C@H](C)[C@](O)(O3)C(=O)C(=O)N3CCCCC3C(=O)O2)CC1OC` (some centres undefined), the TGI is 0.946 µM in experiment [1]; 4.38 µM and 2.12 µM in experiment [2]; 3.48 µM and 2.69 µM in [3]; 4.31 µM and 1.62 µM in experiment [4]; 5.24 µM and 2.95 µM in experiment [5]; 3.54 µM and 3.78 µM in [6]. Also, the TGI is 1.73 µM and 2.75 µM in [7]; 2.34 µM and 1.9 µM in [8]; 3.66 µM and 2 µM in [9]; 1.99 µM in experiment [10]; 2.2 µM in experiment [11]. Also, the GI50 was 1.96 µM in [2]; 0.292 µM and 1.34 µM in experiment [3]; 0.025 µM in [4]; 0.00666 µM in experiment [5]; 0.00257 µM and 0.00547 µM in [7]; 1.13 µM in [8]. Besides, the GI50 in [9] was 1.37 µM.

Regarding `O=C(Nc1ccc(S(=O)(=O)Nc2ncccn2)cc1)c1c2ccccc2nc2ccccc12`, the TGI in [1], in [2], in experiment [3], in [4], in experiment [5] and in experiment [6] was more than 100 µM in each case. Moreover, the TGI in experiment [7], in experiment [8], in experiment [9] and in experiment [10] was more than 100 µM each time.

As for `CCOC(=O)NC(=S)NC(C)c1ccccc1` (centres undefined), the TGI in [1], in [2], in [5], in experiment [6], in [7] and in experiment [8] was more than 100 µM in each case. Further, the TGI in [9], in experiment [10] and in [11] was more than 100 µM in each case.

For the compound `CC(Nc1n[nH]c(=O)c2c1nnn2Cc1ccccc1)c1ccccc1` (centres undefined), the GI50 in [1] is > 100 µM and 37.5 µM; in experiment [2] it was > 100 µM and 32.3 µM; in experiment [3], > 100 µM and 31 µM; in experiment [7], > 100 µM and 21.7 µM. Besides, the TGI in experiment [1] was more than 100 µM; in [2] it was more than 100 µM; in [3], more than 100 µM; in experiment [4], > 100 µM and 63.3 µM; in [5] it was more than 100 µM; in experiment [6], more than 100 µM. Moreover, the TGI was > 100 µM and 86 µM in [7]; > 100 µM and 88.7 µM in experiment [8].

In the case of `CC(Cc1ccc2c(c1)OCO2)N(C)C(=O)C1=CCN(C)CC1` (centres undefined), the TGI in experiment [1], in experiment [2], in [3], in experiment [5], in experiment [6] and in [7] was more than 100 µM throughout. Also, the TGI in experiment [8], in experiment [9], in [10] and in experiment [11] was more than 100 µM each time.

`COC(=O)CCC(C)[C@H]1CCC2C3C(C[C@H](OC(C)=O)[C@@]21C)[C@@]1(C)CCC2(C[C@H]1C[C@H]3OC(C)=O)OOC1(CCCCC1)OO2` (some centres undefined): the TGI is more than 100 µM in experiment [1]; more than 100 µM in experiment [2]; more than 100 µM in experiment [3]; 26.5 µM in [4]; 6.43 µM in experiment [5]; more than 100 µM in [6]. In addition, the TGI is 8.31 µM in experiment [7], more than 100 µM in [8], more than 100 µM in [9] and more than 100 µM in [11].

As for `CC(C)OP(=O)(OC(C)C)C(Nc1cccc(C(F)(F)F)c1)c1ccccc1` (centres undefined), the TGI is more than 100 µM in experiment [1]; more than 100 µM in experiment [2]; more than 100 µM in experiment [3]; more than 100 µM in experiment [4]; 87.3 µM in experiment [5]; more than 100 µM in [6]. The TGI in experiment [7], in experiment [8], in experiment [10] and in experiment [11] was more than 100 µM in each case.

Turning to `Cc1ccc(-n2cc(-c3ccc(Cl)cc3)c(C#N)c2N)cc1`, the TGI is 32.1 µM in [1]; 32.5 µM in [2]; 30.4 µM in experiment [3]; 31.5 µM in experiment [4]; 28.2 µM in experiment [6]; 31.9 µM in experiment [7]. Further, the TGI was 27.3 µM in experiment [8], 26 µM in experiment [9], 29.9 µM in experiment [10] and 23.1 µM in experiment [11].

For the compound `N#Cc1c(N2CCOCC2)ncn(-c2ccc(Cl)cc2)c1=O`, the TGI in experiment [1], in experiment [2], in [3], in experiment [4], in [5] and in experiment [6] was more than 100 µM each time. Also, the TGI in [7], in [8], in experiment [9] and in experiment [10] was more than 100 µM in each case.

On to `COC1C(OC(N)=O)C(O)C(Oc2ccc3c(O)c(NC(=O)c4ccc(O)c(CC=C(C)C)c4)c(=O)oc3c2C)OC1(C)C` (centres undefined), for which the TGI in [1], in experiment [2], in experiment [3], in experiment [5], in experiment [6] and in experiment [7] was more than 100 µM throughout. Besides, the TGI in [8], in experiment [9], in experiment [10] and in [11] was more than 100 µM in each case.

Consider `Cc1nc(Nc2nc3ccccc3[nH]2)[nH]c(=O)c1CCO`, for which the TGI in experiment [1], in experiment [2], in [3], in experiment [4], in experiment [6] and in [7] was more than 100 µM throughout. In addition, the TGI in [8] was more than 100 µM; in [9] it was more than 100 µM; in experiment [10], more than 100 µM; in experiment [11], more than 84.3 µM.

As to `COC(=O)C1=NN2c3ccccc3CN([C@@H](C)c3ccccc3)C(=O)[C@H]2[C@@H]1C`, the TGI was 95.3 µM in experiment [1]; more than 100 µM in [2]; more than 100 µM in experiment [3]; more than 100 µM in experiment [4]; more than 100 µM in [6]; more than 100 µM in [7]. In addition, the TGI in experiment [8], in experiment [9], in [10] and in [11] was more than 100 µM each time.

Turning to `CCN1C(=O)CS/C1=N\NC(=O)CSc1nc2ccccc2c(=O)n1CC`, the TGI in experiment [1], in [2], in [3], in experiment [5], in [6] and in experiment [7] was more than 100 µM in each case. The TGI in experiment [8], in [9], in experiment [10] and in experiment [11] was more than 100 µM throughout.

In the case of `CCc1n[nH]c(=S)n1/N=C\c1ccc(-c2ccccc2[N+](=O)[O-])o1`, the TGI in experiment [1] is more than 100 µM; in experiment [2], 39.2 µM; in experiment [4], more than 100 µM; in [5] it was 88.1 µM; in experiment [6] it was more than 100 µM; in experiment [7], more than 100 µM. In addition, the TGI in [8], in experiment [9], in experiment [10] and in experiment [11] was more than 100 µM in each case.

Consider `Cn1nc(C(=O)N2CC(CCl)c3c2cc([N+](=O)[O-])c2ccccc32)cc1NC(=O)Nc1cc(C(=O)N2CC(CCl)c3c2cc([N+](=O)[O-])c2ccccc32)nn1C` (centres undefined), for which the TGI in [1], in [2], in experiment [3], in experiment [4], in [5] and in [6] was more than 100 µM in each case. Further, the TGI in experiment [7], in experiment [8] and in experiment [10] was more than 100 µM throughout.

For the compound `CCOC(=O)c1c(NC(=O)c2ccc(Br)cc2)sc2c1CCCC2`, the TGI was more than 100 µM in [1]; more than 100 µM in experiment [2]; 20 µM in experiment [3]; more than 100 µM in experiment [5]; more than 100 µM in [6]; more than 100 µM in [7]. For the same compound, the TGI in experiment [8], in experiment [9], in experiment [10] and in [11] was more than 100 µM in each case.

With `CC(=O)Oc1cc(S(=O)(=O)Nc2n[nH]c(N)n2)c(S)cc1Cl`, the TGI in experiment [1], in [2], in experiment [3], in [4], in experiment [5] and in experiment [6] was more than 100 µM each time. Besides, the TGI in experiment [7], in experiment [8], in [9] and in experiment [10] was more than 100 µM throughout.

With `C=C(CC)C[C@@H]1C[C@]2(C(=O)OC)c3[nH]c4ccccc4c3CCN2C1=O`, the TGI in [1] worked out at 43.7 µM; in experiment [2], 35.5 µM; in experiment [3] it was 53.6 µM; in experiment [4] it was 38.1 µM; in experiment [6], 47.2 µM; in experiment [7] it was 34 µM. Further, the TGI in [8] amounted to 40.8 µM; in experiment [9] it was 35.9 µM; in experiment [10] it was 36.2 µM; in experiment [11], 27.7 µM.

For `C(=N/NC1=NCCN1)/c1c2ccccc2c(/C=N\NC2=NCCN2)c2ccccc12`, in [1], the GI50 is 0.244 µM and 0.096 µM. The TGI in experiment [1] is 0.892 µM and 0.347 µM; in experiment [2] it was 0.69 µM and 1.18 µM; in [3], 0.335 µM and 0.33 µM and 0.159 µM; in experiment [4], 0.547 µM and 0.967 µM and 0.34 µM; in experiment [5], 0.798 µM and 2.11 µM and 1.26 µM; in experiment [6] it was 0.788 µM and 3.14 µM and 3.88 µM. The TGI was 0.611 µM and 1.75 µM and 0.597 µM in [7]; 0.722 µM and 0.309 µM and 1.16 µM in [8]; 0.274 µM and 0.425 µM and 0.242 µM in experiment [10]; 0.829 µM and 2.08 µM and 0.596 µM in experiment [11].

On to `CC(=O)C1C(=O)C(=O)N(c2ccc(Br)cc2)C1=O` (centres undefined), for which the TGI in [1], in [2], in [3], in experiment [4], in experiment [6] and in experiment [7] was more than 100 µM throughout. Further, the TGI in [8], in [9], in [10] and in experiment [11] was more than 100 µM throughout.
